A short description of data set [1]: Final batch viscosity, Brookfield DV-I+ Viscometer. As to conditions: 1.0% in cleansing composition; acceptable if at least twice the viscosity of Example 1. It counts as physicochemical. The protocol: After this mixture had cooled to a temperature not greater than 40° C., the following components were added sequentially thereto: 0.10 parts Tetrasodium EDTA, 0.05 parts Quaternium-15, and 1.9 parts Glycerin. After this solution mixture had cooled to room temperature (approximately 25° C.), the pH of the resulting solution was then adjusted with a 20% citric acid solution until a final pH of 6.0 to 6.6 was obtained. The batch weight of the solution was then adjusted with water in order to achieve a total formulation of 100 parts. Table 2 lists the final batch viscosity of each Example as measured by a Brookfield DV-I+Viscometer using the indicated spindle and speed.
The viscosity of the examples was considered acceptable if it was at least twice the viscosity of Example 1.

The nature of data set [2]: Foam Generation (Foam Tray Test). In kind it is physicochemical. The following applies: 1.0% in cleansing composition; acceptable if at least twice the foam of Example 1. The protocol:
1. Foam Generation: 1 g of a cleansing composition sample was added to a tray containing 5 liters of tap water, then gently mixed until homogenous without generating any foam. A Model AJMP14 Jiffy Mixer mechanical mixer available from U.S. Best, Inc. with an attached propeller blade was then set at a level in the tray such that the propeller blade was halfway immersed in the mixture. The mixer was then activated at a speed of 2000 RPM for 30 seconds to generate foam. Foam data was collected via photography using a Polaroid MP4+ camera at 30 seconds after the mixing was ceased. The area of foam in the tray was calculated and reported as % area of foam in tray.
Foam performance evaluation was then accomplished for each of the cleansing compositions of Examples 1-8.
Foaming of the Examples was considered acceptable if it was at least twice the amount of foam of Example 1.

The test system of another data set is subject's eye. In words: Ocular Irritancy Test (human ocular sting). It counts as in vivo. The following applies: 1.0% in mild cleansing composition. The procedure:
2. Ocular Irritancy Test: Using a double-blinded, randomized, two (2) cell study test design, one (1) drop of a sample (e.g. a 10% dilution of a cleansing composition in water) at a temperature of about 38° C. was instilled into a subject's eye. A new sterile disposable eyedropper was used for each sample and disposed of after being used on only one individual's eye. All instillations were performed either by an investigator or by a trained technician.
Within 30 seconds, or as closely as possible following instillation, the subject was asked to grade the perceived stinging sensation to the eye utilizing the following criteria:
After 15 minutes and 60 minutes post-instillation, the subject was again asked to grade the perceived stinging sensation to the eye. The data was collected from a balanced, complete block experiment then statistically analyzed.
The samples of Examples 1-8 were tested for ocular irritancy. The results are reported in Table 4 in terms of the percentage of subjects who found the respective sample to be stinging to their eyes.
A sample was considered to have low ocular irritancy if less than 20% of the people tested found the sample to sting their eyes.

Turning to Cocamide DEA [reference compound], the “Effect on viscosity of a mild cleansing composition” value (“Effect on viscosity” for short) in data set [1] was “effective at increasing the viscosity”. Moreover, the “Effect on foam generation in mild cleansing compositions” value (“Effect on foam generation” for short) in data set [2] is given as “effective at increasing foam generation”. The “Mildness to the eye relative to Cocamide MIPA and Cocamide MEA” value in the data set with subject's eye is “significantly more mild to the eye”.
For “polypropylene glycol (“PPG”)-2 Hydroxyethyl Cocamide [PPG-2 Hydroxyethyl Cocamide]”, the “Effect on viscosity” value in data set [1] was “effective at increasing the viscosity”. For the same substance, the “Effect on foam generation” value in data set [2] is listed as “effective at increasing foam generation”. In the data set on subject's eye, the “Mildness to the eye relative to Cocamide MIPA and Cocamide MEA” value is “significantly more mild to the eye”.
Take “polyethylene glycol (“PEG”)-6 Cocamide [PEG-6 Cocamide]”: the “Effect on viscosity” value in data set [1] is listed as “effective at increasing the viscosity”. In data set [2], the “Effect on foam generation” value was “effective at increasing foam generation”. The “Mildness to the eye relative to Cocamide MIPA and Cocamide MEA” value in the data set with subject's eye was “significantly more mild to the eye”.
As for Cocamide MIPA [reference compound], the “Effect on viscosity” value in data set [1] is “effective at increasing the viscosity”. Besides, the “Effect on foam generation” value in data set [2] is reported as “effective at increasing foam generation”.
On to PEG-6 Lauramide, for which the “Effect on viscosity” value in data set [1] is listed as “effective at increasing the viscosity”. For the same substance, in data set [2], the “Effect on foam generation” value was “effective at increasing foam generation”. Besides, in the data set on subject's eye, the “Mildness to the eye relative to Cocamide MIPA and Cocamide MEA” value was “significantly more mild to the eye”.
The like results for PEG-3 Cocamide were, in that order, “effective at increasing the viscosity”, “effective at increasing foam generation” and “significantly more mild to the eye”.
For Cocamide MEA [reference compound], the “Effect on viscosity” value in data set [1] is “effective at increasing the viscosity”. Further, in data set [2], the “Effect on foam generation” value is “effective at increasing foam generation”.

The record behind these values is US6514918B1, “Viscous, mild, and effective cleansing compositions” (Johnson & Johnson Consumer Companies, Inc., priority 2000, dated 2003).
